18 molecules from patent US20060234909A1, “Compositions and methods for increasing drug efficiency” (priority 2003, published 2006) can be followed below.

One may read the EC50 as the concentration at which the effect is half-maximal.

For one series, the system named is HT-29 cells. Particulars: read-out: HT29 (EC50 Ave) SA; HT29, SA (soft agar).
The test system of series [1] is Normal human foreskin fibroblasts (HFF). Particulars: read-out: HFF (EC50 Ave) ML; HFF, ML (monolayer).
The next series deals with MCF-7 breast carcinoma. Kind of series: Cytotoxicity assay (monolayer), MCF-7.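 Note: cells treated 72 h with 6-8 compound doses versus DMSO vehicle controls, EC50 fitted by 4-parameter dose-response curves, averaged across all tests and lots.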 Particulars: MCF7, ML (monolayer); read-out: MCF7 (EC50 Ave) ML. In kind it is cell-based.
Series [2] concerns HT-29 colorectal carcinoma. Kind of series: Cytotoxicity assay (monolayer), HT-29.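 Note: monolayer cultures tested in triplicate, compound exposure for three days against DMSO vehicle controls, EC50 fitted from dose-response curves and averaged across all tests and lots.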 The format is cell-based. The following applies: HT29, ML (monolayer); read-out: HT29 (EC50 Ave) ML.
The next series deals with HUVEC. Kind of series: Cytotoxicity assay (monolayer), HUVEC. In kind it is cell-based. The following applies: ML (monolayer), read-out: HUVEC (EC50 Ave) ML.
In another series the test system is MCF-7 cells. Particulars: read-out: MCF7 (EC50 Ave) SA; MCF7, SA (soft agar).
For the next series, the system named is tubulin. Kind of series: Fluorescence-based tubulin polymerization assay (MPA; enhancement for paclitaxel, inhibition for vinblastine). The format is biochemical. From the text: Drug-linker constructs may further be screened using functional assays predictive of biological activity. […] Tubulin assembly or inhibition thereof may be monitored by fluorescence using the CytoDYNAMIX Screen™ 10 kit available from Cytoskeleton (1830 S. Acoma St., Denver, Colo.). […] Emission is monitored at 405 nm with excitation at 360 nm. […] Tubulin assembly or inhibition may also be monitored by light scattering which is approximated by the apparent absorption at 350 nm. For paclitaxel drug conjugates BSA is employed to prevent aggregation and glycerol, which is a tubulin polymerization enhancer, is omitted from the kit to increase the signal to noise ratio.
The assay kit (#BK011) was purchased from Cytoskeleton (Denver, Colo.). The assays were carried out according to the manufacturer's instructions, except that 1 mg/ml BSA (Sigma #A3059) was included in all assays. […] Parent drugs and conjugates were tested at 0.75, 1.5, 3 and 10 micromolar final concentration and results represent a comparison of conjugate and parent drug curves obtained from the linear range of the dose responses.
(±SD) represent the average of all tests carried out for all lots of a given compound.

The target of another series is T1, Human Src (Homo sapiens, UniProt P12931).
T1 construct: purchased Upstate (Charlottesville, Va.) 14-326
Put plainly: Src kinase assay (PKLight ATP utilization, substrate phosphorylation as % of parent peptide). In kind it is biochemical. The protocol:
Another test may involve monitoring the consumption of ATP. For example, ATP concentrations at time 0 or after 4 hour incubation may be monitored by luciferase reaction (PKLight kit obtained from Cambrex Corporation, One Meadowlands Plaza, East Rutherford, N.J. 07073), which generate a luminescence readout in the presence of ATP. Assays are initiated by mixing a kinase and a peptide in the presence of 40 μM ATP. After 4 hour of incubation at 30° C., PKLight reagent is added and mixed well, and luminescence readout measured. The rate of peptide phosphorylation is then directly related to the rate of decrease in the observed luminescence. Based on the first test, linkers of appropriate lengths and peptides with an effective amount of kinase activity which may be expected to be retained in the drug conjugate may be found.
Human Src (#14-326) and Akt (#14-276) kinases were purchased from Upstate (Charlottesville, Va.). Kinase reactions were carried out in 50 μl kinase reaction cocktail (25 mM Tris-HCl, pH 7.5, 5 μM β-glycerophosphate, 2 mM DTT, 0.1 mM Na3VO4, 10 mM MgCl2, 1 mg/ml BSA, […], 0.5 to 1.0 units enzyme). Substrates (peptide or drug-peptide conjugate in […]) were added (25, 50 and 100 μM) and the reaction was incubated for 2-5 hours at 30° C. PKLight reagent (23 μl) (Cambrex BioSciences, Rockland, Me.) was mixed with […] of the above kinase reaction and ATP utilization relative to no substrate and no ATP controls was determined by measuring luminescence with a SpectraMax Gemini EM plate reader (Molecular Devices, Sunnyvale, Calif.). Peptide substrates for Src and Akt have been described. For examples, see Lou et al. Letters in Peptide Science, 2, 289-296 (1995); Lou et al. Bioorganic & Medicinal Chemistry, 4, 677-682 (1996); Alessi et al. FEBS Letters, 399, 333-338 (1996). Substrate phosphorylation potential was determined from the linear portion of the substrate concentration dose response as a percentage of the activity observed with the parent peptide used for drug conjugation.

Primed or numbered codes have the meaning given here. * marks the point of attachment. 3Am‑VBL = vinblastine (VBL) conjugate; PEG(11) = PEG(11) linker; PEG(29) = PEG(29) linker; 3Am = not defined here; Cbz = O=C(OCc1ccccc1)*; Piv = CC(C)(C)C(=O)*; VBL = vinblastine Bounds are passed on as bounds.

In the case of `CC(=O)O[C@@]12CO[C@@H]1C[C@H](O)[C@@]1(C)C(=O)[C@H](O)C3=C(C)[C@@H](OC(=O)[C@H](O)[C@@H](NC(=O)c4ccccc4)c4ccccc4)C[C@@](O)([C@@H](OC(=O)c4ccccc4)[C@H]21)C3(C)C` [10 Deacetyl Taxol], the concentration giving a half-maximal response (EC50) in the series on HT-29 cells is less than 20 nM; in series [1], less than 20 nM; in the series on MCF-7 breast carcinoma, 20 to 100 nM; in series [2] it was less than 20 nM; with HUVEC, less than 20 nM; in the series with MCF-7 cells, less than 20 nM.
As for `CC[C@]1(O)C[C@@H]2CN(CCc3c([nH]c4ccccc34)[C@@](C(=O)OC)(c3cc4c(cc3OC)N(C)[C@H]3[C@@](O)(C(=O)OC)[C@H](O)[C@]5(CC)C=CCN6CC[C@]43[C@@H]65)C2)C1` [Desacetyl vinblastine], the 50% effective concentration (EC50) (with HT-29 cells; in series [1]; in the series with MCF-7 breast carcinoma; in series [2]; with HUVEC; with MCF-7 cells) was less than 20 nM throughout. In addition, in the series on tubulin, the “Ave. MPA Act.” value is recorded as “C (C>80)”.
Consider `CC[C@]1(O)C[C@@H]2CN(CCc3c([nH]c4ccccc34)[C@@](C(=O)OC)(c3cc4c(cc3OC)N(C)[C@H]3[C@@](O)(C(=O)NN)[C@H](O)[C@]5(CC)C=CCN6CC[C@]43[C@@H]65)C2)C1` [Desacetylvinblastine monohydrazine], for which the EC50 (in the series with HT-29 cells; in series [1]; in the series with MCF-7 breast carcinoma; in series [2]; with HUVEC; in the series on MCF-7 cells) was less than 20 nM in each case. Further, the “Ave. MPA Act.” value in the series on tubulin was “C (C>80)”.
Regarding “Ac-YIYGSFH-PEG(11)-3Am-VBL (N-acetyl; PEG(11) linker; vinblastine conjugate)”, the EC50 (in series [1]; with MCF-7 breast carcinoma; in series [2]; in the series with HUVEC) was more than 100 nM in each case. The “Ave. MPA Act.” value in the series on tubulin was “C (C>80)”. The “Average src kinase activity” value with Human Src is listed as “C (C>40)”.
With “Ac-YIYGSFR-PEG(13)-10Ca-PXL (N-acetyl; PEG(13) linker; paclitaxel conjugate)”, the 50% effective concentration (EC50) (in series [1]; in the series on MCF-7 breast carcinoma; in series [2]; with HUVEC) was more than 100 nM throughout. Further, the “Ave. MPA Act.” value in the series on tubulin is listed as “B (B=50-80)”. In addition, in the series with Human Src, the “Average src kinase activity” value is listed as “C (C>40)”.
For the molecule “Ac-YIYGSFS-PEG(11)-3Am-VBL (N-acetyl; PEG(11) linker; vinblastine conjugate)”, the EC50 (in series [1]; with MCF-7 breast carcinoma; in series [2]; with HUVEC) was more than 100 nM in each case. Moreover, the “Ave. MPA Act.” value with tubulin was “B (B=50-80)”. The “Average src kinase activity” value with Human Src is reported as “C (C>40)”.
As for “BOC-YIYGSFK(BOC)-PEG(11)-3Am-VBL (N-BOC; BOC side chain; PEG(11); vinblastine conjugate)”, the EC50 in series [1] was more than 100 nM; in the series on MCF-7 breast carcinoma, 20 to 100 nM; in series [2], 20 to 100 nM; in the series with HUVEC, more than 100 nM. Further, the “Ave. MPA Act.” value in the series with tubulin is reported as “B (B=50-80)”. The “Average src kinase activity” value with Human Src was “A (A<20)”.
In the case of “BOC-YIYGSFS-PEG(11)-3Am-VBL (N-BOC; PEG(11) linker; vinblastine conjugate)”, the EC50 (in series [1]; in the series with MCF-7 breast carcinoma; in series [2]; in the series with HUVEC) was more than 100 nM in each case. Also, the “Ave. MPA Act.” value with tubulin is “C (C>80)”. The “Average src kinase activity” value with Human Src is “C (C>40)”.
Regarding CBz-E(Bzl)YIFGSFK(BOC)-PEG(11)-3Am-VBL, the EC50 in series [1] is more than 100 nM; in the series with MCF-7 breast carcinoma, less than 20 nM; in series [2] it was more than 100 nM; in the series on HUVEC, more than 100 nM. For the same molecule, in the series with tubulin, the “Ave. MPA Act.” value is recorded as “A (A<50)”. Further, the “Average src kinase activity” value in the series with Human Src was “A (A<20)”.
On to “CBz-RPRTSSF-PEG(11)-3Am-VBL (N-CBz; PEG(11) linker; vinblastine conjugate)”, for which the EC50 with MCF-7 breast carcinoma is less than 20 nM; in series [2], less than 20 nM; in the series on MCF-7 cells, 20 to 100 nM.
Turning to “CBz-YIFGSFK-PEG(11)-3Am-VBL (N-CBz; PEG(11) linker; vinblastine conjugate)”, the EC50 (in series [1]; in the series on MCF-7 breast carcinoma; in series [2]; in the series with HUVEC) was more than 100 nM in each case. For the same molecule, the “Ave. MPA Act.” value with tubulin was “B (B=50-80)”. Besides, the “Average src kinase activity” value with Human Src is listed as “A (A<20)”.
“CBz-YIYGSFK(CBz)-PEG(11)-3Am-VBL (Cbz-YIYGSFK(Cbz)-{PEG(11)-3Am-VBL}; reading uncertain; also: printed as CBz-YIYGSFK(CBz)-PEG(11)-3Am-VBL)”: the EC50 in series [1] was 20 to 100 nM; in the series on MCF-7 breast carcinoma it was 20 to 100 nM; in series [2], more than 100 nM; in the series with HUVEC, 20 to 100 nM. Besides, the “Ave. MPA Act.” value in the series on tubulin was “B (B=50-80)”. In addition, in the series with Human Src, the “Average src kinase activity” value is on record as “A (A<20)”.
For the molecule “CH3O(CH2CH2O)3CH2CH2(C═)YIYGSFH-PEG(11)-3Am-VBL (N-methoxy-PEG acyl; PEG(11); vinblastine conjugate)”, the EC50 (in series [1]; with MCF-7 breast carcinoma; in series [2]; in the series with HUVEC) was more than 100 nM each time. Moreover, in the series on tubulin, the “Ave. MPA Act.” value is on record as “B (B=50-80)”. Further, the “Average src kinase activity” value with Human Src was “C (C>40)”.
For “CH3O(CH2CH2O)3CH2CH2(C═O)YIYGSFS-PEG(11)-3Am-VBL (N-methoxy-PEG acyl; PEG(11); vinblastine conjugate)”, the EC50 (in series [1]; in the series on MCF-7 breast carcinoma; in series [2]; with HUVEC) was more than 100 nM in each case. Also, the “Ave. MPA Act.” value in the series on tubulin is listed as “C (C>80)”. Besides, the “Average src kinase activity” value with Human Src is reported as “C (C>40)”.
Take “H-GIYWHHY-PEG(11)-3Am-VBL (H-GIYWHHY-{PEG(11)-3Am-VBL}; reading uncertain)”: the concentration giving a half-maximal response (EC50) (in series [1]; with MCF-7 breast carcinoma; in series [2]; in the series with HUVEC) was more than 100 nM throughout. For the same molecule, the “Ave. MPA Act.” value with tubulin is recorded as “B (B=50-80)”. The “Average src kinase activity” value with Human Src is on record as “B (B=20-40)”.
With “H-YIYGSFK-PEG(11)-3Am-VBL (H-YIYGSFK-{PEG(11)-3Am-VBL}; reading uncertain)”, the concentration for a half-maximal effect (EC50) in series [1] is 20 to 100 nM; in the series on MCF-7 breast carcinoma, more than 100 nM; in series [2], more than 100 nM; in the series on HUVEC, more than 100 nM. The “Ave. MPA Act.” value with tubulin was “B (B=50-80)”. For the same molecule, in the series with Human Src, the “Average src kinase activity” value was “C (C>40)”.
For the molecule “H-YIYGSFK-PEG(29)-3Am-VBL x 2TFA (H-YIYGSFK-{PEG(29)-3Am-VBL}; reading uncertain; also: 2TFA salt)”, the concentration giving a half-maximal response (EC50) in series [1] was 20 to 100 nM; in the series with MCF-7 breast carcinoma it was less than 20 nM; in series [2] it was 20 to 100 nM; with HUVEC it was more than 100 nM. For the same molecule, the “Ave. MPA Act.” value in the series with tubulin is “A (A<50)”. In addition, the “Average src kinase activity” value with Human Src is on record as “A (A<20)”.
On to “Pv-EYIYGSFR-PEG(11)-3Am-VBL (Piv-EYIYGSFR-{PEG(11)-3Am‑VBL})”, for which the concentration giving a half-maximal response (EC50) (in series [1]; with MCF-7 breast carcinoma; in series [2]; in the series on HUVEC) was more than 100 nM in each case. For the same molecule, the “Ave. MPA Act.” value in the series on tubulin is “C (C>80)”. For the same molecule, in the series with Human Src, the “Average src kinase activity” value was “C (C>40)”.
